Measurements: patent US20120149718A1, “Amido Compounds” (priority 2010, published 2012)

What was measured:
[1] = target: T1, human P2X7 (Homo sapiens, UniProt Q99572); experiment: Intracellular Calcium Flux (FLIPR) Assay; type: cell-based; settings: 1321N1 cells stably expressing full length human P2X7; agonist 100 μM BzATP; fluo-3 calcium flux; read-out: FLIPR pIC50 hP2X7-1321n1 (converted)
T1 construct: 1321N1 cells stably expressing the full length human P2X7 gene (1321N1-hP2X7)
T1 sequence (Q99572 1-595): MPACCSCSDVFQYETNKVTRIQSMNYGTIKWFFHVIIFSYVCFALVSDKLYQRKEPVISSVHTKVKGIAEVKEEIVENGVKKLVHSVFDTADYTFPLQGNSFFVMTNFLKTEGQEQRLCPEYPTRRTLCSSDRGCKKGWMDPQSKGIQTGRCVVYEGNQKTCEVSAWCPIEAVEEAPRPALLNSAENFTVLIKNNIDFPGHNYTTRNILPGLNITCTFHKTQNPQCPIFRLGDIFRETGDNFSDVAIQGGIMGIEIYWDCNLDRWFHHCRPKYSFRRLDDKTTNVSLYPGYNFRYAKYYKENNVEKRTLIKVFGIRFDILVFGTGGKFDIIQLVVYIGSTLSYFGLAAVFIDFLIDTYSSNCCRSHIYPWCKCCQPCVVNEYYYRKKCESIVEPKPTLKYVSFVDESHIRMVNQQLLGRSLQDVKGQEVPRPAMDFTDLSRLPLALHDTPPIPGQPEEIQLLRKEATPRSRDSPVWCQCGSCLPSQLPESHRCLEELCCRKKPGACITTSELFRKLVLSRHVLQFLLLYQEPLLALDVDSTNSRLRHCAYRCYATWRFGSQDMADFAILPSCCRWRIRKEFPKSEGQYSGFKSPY
Protocol: Stock solutions of compounds were prepared from powders as a 10 mM DMSO stock solution. These solutions were stored at RT during the two week period of these experiments to prevent freeze-thaw of the DMSO stocks. The DMSO stocks were added to the appropriate assay buffer at a concentration of 10 μM, and then diluted serially to the final concentrations that were tested. No observable precipitate was formed at any time during this process. The aqueous solutions of compounds as well as ATP (Sigma A7699) and BzATP (Sigma B6396) were prepared fresh for each day of experiment.
1321N1 cells stably expressing the full length human P2X7 gene (1321N1-hP2X7) and HEK293 cells stably expressing the full length rat P2X7 gene (HEK293-rP2X7) were obtained from the Roche Cell Culture Facility. 1321N1-hP2X7 cells were grown in Dulbecco's Modified Eagle's Medium (DMEM) high glucose supplemented with 10% FBS and 250 μg/mL G418. HEK293-rP2X7 cells were grown in DMEM/F-12 supplemented with 10% FBS, 1 mM CaCl2, 2 mM MgCl2, 2 mM L-Glutamine and 500 μg/ml G418. Cells were split such that they never became >70% confluent.
On the day prior to the experiment, 1321N1-hP2X7 or HEK293-rP2X7 cells were released into suspension with calcium-free PBS+Versene and washed by centrifugation with calcium-free PBS to remove the Versene. Cells were resuspended in growth medium at a density of 2.5×10^5 cells/mL and seeded into black walled, clear bottom 96 well plates (50,000 cells/well) approximately 18 hr prior to intracellular calcium flux experiments.
On the day of the experiment, plates were washed with FLIPR buffer (calcium- and magnesium-free Hank's Balanced Salt Solution (HBSS) supplemented with 10 mM Hepes, 2.5 mM probenecid and 2 mM calcium chloride) using a BIO-TEK 96 channel plate washer and incubated with […] fluo-3 dye at 37° C. for one hr. The dye was then removed by plate washing and the cells were allowed to equilibrate for 20 min at room temperature with antagonist or vehicle (FLIPR buffer). Agonist (100 μM BzATP final concentration for hP2X7; 5 μM BzATP final concentration or rP2X7) was added online with the FLIPR and fluorescence measurements made at 1 sec intervals for 60 sec followed by 3 sec intervals for a further 4 min (5 min total). A final addition of 5 μM ionomycin was made and the maximal BzATP-evoked fluorescence normalized to the maximal ionomycin-evoked fluorescence.

| SMILES | IC50 [1] [nM] | melting point [°C] |
| --- | --- | --- |
| CC(C)(O)c1ccc(C(Cc2ccc(F)cc2)C(=O)Nc2nc3ccccc3o2)cc1 (centres unmarked) [Compound I-31, N-Benzooxazol-2-yl-3-(4-fluoro-phenyl)-2-[4-(1-hydroxy-1-methyl-ethyl)-phenyl]-propionamide] | 282 | 87 to 90 |
| NC(=O)c1ccc(C(Cc2ccc(F)cc2)C(=O)Nc2nc3ccccc3o2)cc1 (centres unmarked) [Compound I-32, 4-[1-(Benzooxazol-2-ylcarbamoyl)-2-(4-fluoro-phenyl)-ethyl]-benzamide] | 20.4 | 137 to 139 |
| O=C(NCCO)c1ccc(C(Cc2ccc(F)cc2)C(=O)Nc2nc3ccccc3o2)cc1 (centres unmarked) [Compound I-33, 4-[1-(Benzooxazol-2-ylcarbamoyl)-2-(4-fluoro-phenyl)-ethyl]-N-(2-hydroxy-ethyl)-benzamide] | 347 | 134 to 136 |
| CN(C)CCNC(=O)c1ccc(C(Cc2ccc(F)cc2)C(=O)Nc2nc3ccccc3o2)cc1 (centres unmarked) [Compound I-34, 4-[1-(Benzooxazol-2-ylcarbamoyl)-2-(4-fluoro-phenyl)-ethyl]-N-(2-dimethylamino-ethyl)-benzamide] | 389 | 149 to 151 |
